According to patent publication US6613747B2, “6-O-carbamoyl ketolide antibacterials” (Ortho-McNeil Pharmaceutical, Inc., priority 2000, dated 2003):
Converted amounts (≈) assume the structure as drawn. Where two headings read alike, the source gives them in different places.

Legend:
Assay in all cases: MIC, microdilution broth method (NCCLS)
Format in all cases: cell-based
[1] = tested on: E. coli OC2605; conditions: A: E. coli OC2605, 35° C., 16-20 hours
Description: (§1) Minimal inhibitory concentration (MIC) has been an indicator of in vitro antibacterial activity widely used in the art. The in vitro antimicrobial activity of the compounds was determined by the microdilution broth method following the test method from the National Committee for Clinical Laboratory Standards (NCCLS). This method is described in the NCCLS Document M7-A4, Vol. 17, No. 2, “Methods for Dilution Antimicrobial Susceptibility Test for Bacteria that Grow Aerobically—Fourth Edition”, which is incorporated herein by reference.
(§2) In this method two-fold serial dilutions of drug in cation adjusted Mueller-Hinton broth are added to wells in microdilution trays. The test organisms are prepared by adjusting the turbidity of actively growing broth cultures so that the final concentration of test organism after it is added to the wells is approximately 5×10^4 CFU/well.
(§3) Following inoculation of the microdilution trays, the trays are incubated at 35° C. for 16-20 hours and then read. […] The amount of growth in the wells containing the test compound is compared with the amount of growth in the growth-control wells (no test compound) used in each tray. As set forth in Table 1, compounds of the present invention were tested against a variety of Gram positive and Gram negative pathogenic bacteria resulting in a range of activities depending on the organism tested.

[2] = tested on: E. faecalis ATCC29212; conditions: C: E. faecalis ATCC29212, 35° C., 16-20 hours
Description: as §1, §2, §3

[3] = tested on: S. pneumoniae ATCC49619; conditions: D: S. pneumoniae ATCC49619, 35° C., 16-20 hours
Description: as §1, §2, §3

[4] = tested on: H. influenzae ATCC49247; conditions: E: H. influenzae ATCC49247, 35° C., 16-20 hours
Description: as §1, §2, §3

[5] = tested on: S. aureus ATCC29213; conditions: B: S. aureus ATCC29213, 35° C., 16-20 hours
Description: as §1, §2, §3

| SMILES | MIC [1] | MIC [2] | MIC [3] | MIC [4] | MIC [5] | MIC ([1]; Escherichia coli, read-out: MIC) | MIC ([2]; Enterococcus faecalis, read-out: MIC) | MIC ([3]; Streptococcus pneumoniae, read-out: MIC) | MIC ([4]; Haemophilus influenzae, read-out: MIC) | MIC ([5]; Staphylococcus aureus, read-out: MIC) |
| --- | --- | --- | --- | --- | --- | --- | --- | --- | --- | --- |
| CC[C@H]1OC(=O)[C@H](C)C(=O)[C@H](C)[C@@H](O[C@@H]2O[C@H](C)C[C@H](N(C)C)[C@H]2O)[C@](C)(OC(=O)NC/C=C/c2ccncc2)C[C@@H](C)C(=O)[C@H](C)[C@H]2NC(=O)O[C@@]21C [Compound 30] | 16 µg/mL (≈ 21.1 µM) | 0.12 µg/mL (≈ 0.158 µM) | 0.03 µg/mL (≈ 0.0395 µM) | 2 µg/mL (≈ 2.64 µM) | 0.5 µg/mL (≈ 0.659 µM) | – | – | – | – | – |
| CC[C@H]1OC(=O)[C@H](C)C(=O)[C@H](C)[C@@H](O[C@@H]2O[C@H](C)C[C@H](N(C)C)[C@H]2O)[C@](C)(OC(=O)NCc2ccc(-c3ncccn3)cc2)C[C@@H](C)C(=O)[C@H](C)[C@H]2NC(=O)O[C@@]21C [Compound 31] | 16 µg/mL (≈ 19.8 µM) | 0.06 µg/mL (≈ 0.0741 µM) | 0.03 µg/mL (≈ 0.037 µM) | 2 µg/mL (≈ 2.47 µM) | 0.25 µg/mL (≈ 0.309 µM) | – | – | – | – | – |
| CC[C@H]1OC(=O)[C@H](C)C(=O)[C@H](C)[C@@H](O[C@@H]2O[C@H](C)C[C@H](N(C)C)[C@H]2O)[C@](C)(OC(=O)NCc2ccc(-c3cc[nH]n3)cc2)C[C@@H](C)C(=O)[C@H](C)[C@H]2NC(=O)O[C@@]21C [Compound 39] | >16 µg/mL | 0.12 µg/mL (≈ 0.15 µM) | 0.06 µg/mL (≈ 0.0752 µM) | 1 µg/mL (≈ 1.25 µM) | 1 µg/mL (≈ 1.25 µM) | – | – | – | – | – |
| CC[C@H]1OC(=O)[C@H](C)C(=O)[C@H](C)[C@@H](O[C@@H]2O[C@H](C)C[C@H](N(C)C)[C@H]2O)[C@](C)(OC(=O)NC/C=C/c2ccc3nccnc3c2)C[C@@H](C)C(=O)[C@H](C)[C@H]2NC(=O)O[C@@]21C [Compound 41] | 16 µg/mL (≈ 19.8 µM) | 0.12 µg/mL (≈ 0.148 µM) | 0.03 µg/mL (≈ 0.037 µM) | 1 µg/mL (≈ 1.23 µM) | 0.25 µg/mL (≈ 0.309 µM) | – | – | – | – | – |
| CC[C@H]1OC(=O)[C@H](C)C(=O)[C@H](C)[C@@H](O[C@@H]2O[C@H](C)C[C@H](N(C)C)[C@H]2O)[C@](C)(OC(=O)NCc2ccc(-c3ccc([N+](=O)[O-])cn3)cc2)C[C@@H](C)C(=O)[C@H](C)[C@H]2NC(=O)O[C@@]21C [Compound 42] | 16 µg/mL (≈ 18.7 µM) | 0.12 µg/mL (≈ 0.141 µM) | 0.12 µg/mL (≈ 0.141 µM) | 1 µg/mL (≈ 1.17 µM) | 0.5 µg/mL (≈ 0.586 µM) | – | – | – | – | – |
| CC[C@H]1OC(=O)[C@H](C)C(=O)[C@H](C)[C@@H](O[C@@H]2O[C@H](C)C[C@H](N(C)C)[C@H]2O)[C@](C)(OC(=O)NC/C=C/c2ccc(-c3ccn(C)n3)cc2)C[C@@H](C)C(=O)[C@H](C)[C@H]2NC(=O)O[C@@]21C [Compound 43, Carbamic acid, [(2E)-3-[4-(1-methyl-1H-pyrazol-3-yl)phenyl]-2-propenyl]-, (3aS,4R,7R,9R,10R,11R,13R,15R,15aR)-4-ethyltetradecahydro-3a,7,9,11,13,15-hexamethyl-2,6,8,14-tetraoxo-10-[[3,4,6-trideoxy-3-(dimethylamino)-β-D-xylo-hexopyranosyl]oxy]-2H-oxacyclotetradecino[4,3-d]oxazol-11-yl ester] | – | – | – | – | – | > 16 µg/mL | 0.12 µg/mL (≈ 0.143 µM) | 0.03 µg/mL (≈ 0.0358 µM) | 2 µg/mL (≈ 2.39 µM) | 0.25 µg/mL (≈ 0.298 µM) |
| CC[C@H]1OC(=O)[C@H](C)C(=O)[C@H](C)[C@@H](O[C@@H]2O[C@H](C)C[C@H](N(C)C)[C@H]2O)[C@](C)(OC(=O)NC/C=C/c2ccc(-c3ccnn3C)cc2)C[C@@H](C)C(=O)[C@H](C)[C@H]2NC(=O)O[C@@]21C [Compound 44] | >16 µg/mL | 0.12 µg/mL (≈ 0.143 µM) | 0.12 µg/mL (≈ 0.143 µM) | 2 µg/mL (≈ 2.39 µM) | 0.25 µg/mL (≈ 0.298 µM) | – | – | – | – | – |
| CC[C@H]1OC(=O)[C@H](C)C(=O)[C@H](C)[C@@H](O[C@@H]2O[C@H](C)C[C@H](N(C)C)[C@H]2O)[C@](C)(OC(=O)NC/C=C/c2ccc(-c3ccc([N+](=O)[O-])cn3)cc2)C[C@@H](C)C(=O)[C@H](C)[C@H]2NC(=O)O[C@@]21C [Compound 45] | >16 µg/mL | 0.5 µg/mL (≈ 0.568 µM) | 0.25 µg/mL (≈ 0.284 µM) | 4 µg/mL (≈ 4.55 µM) | 1 µg/mL (≈ 1.14 µM) | – | – | – | – | – |
| CC[C@H]1OC(=O)[C@H](C)C(=O)[C@H](C)[C@@H](O[C@@H]2O[C@H](C)C[C@H](N(C)C)[C@H]2O)[C@](C)(OC(=O)NC/C=C/c2ccc(-n3cccn3)nc2)C[C@@H](C)C(=O)[C@H](C)[C@H]2NC(=O)O[C@@]21C [Compound 49] | 16 µg/mL (≈ 19.4 µM) | 0.06 µg/mL (≈ 0.0727 µM) | 0.06 µg/mL (≈ 0.0727 µM) | 2 µg/mL (≈ 2.42 µM) | 0.25 µg/mL (≈ 0.303 µM) | – | – | – | – | – |
| CC[C@H]1OC(=O)[C@H](C)C(=O)[C@H](C)[C@@H](O[C@@H]2O[C@H](C)C[C@H](N(C)C)[C@H]2O)[C@](C)(OC(=O)NC/C=C/C=C/c2cccc(-n3cncn3)n2)C[C@@H](C)C(=O)[C@H](C)[C@H]2NC(=O)O[C@@]21C [Compound 50] | 16 µg/mL (≈ 18.8 µM) | 0.06 µg/mL (≈ 0.0704 µM) | ≦0.015 μg/mL | 2 µg/mL (≈ 2.35 µM) | 0.25 µg/mL (≈ 0.293 µM) | – | – | – | – | – |
| CC[C@H]1OC(=O)[C@H](C)C(=O)[C@H](C)[C@@H](O[C@@H]2O[C@H](C)C[C@H](N(C)C)[C@H]2O)[C@](C)(OC(=O)NC/C=C/c2cccc(-n3cncn3)n2)C[C@@H](C)C(=O)[C@H](C)[C@H]2NC(=O)O[C@@]21C [Compound 51] | >16 µg/mL | 0.12 µg/mL (≈ 0.145 µM) | 0.06 µg/mL (≈ 0.0726 µM) | 8 µg/mL (≈ 9.69 µM) | 0.5 µg/mL (≈ 0.605 µM) | – | – | – | – | – |
| CC[C@H]1OC(=O)[C@H](C)C(=O)[C@H](C)[C@@H](O[C@@H]2O[C@H](C)C[C@H](N(C)C)[C@H]2O)[C@](C)(OC(=O)NC/C=C/c2cncc3ccccc23)C[C@@H](C)C(=O)[C@H](C)[C@H]2NC(=O)O[C@@]21C [Compound 52] | 8 µg/mL (≈ 9.89 µM) | 0.12 µg/mL (≈ 0.148 µM) | 0.03 µg/mL (≈ 0.0371 µM) | 2 µg/mL (≈ 2.47 µM) | 0.25 µg/mL (≈ 0.309 µM) | – | – | – | – | – |
| CC[C@H]1OC(=O)[C@H](C)C(=O)[C@H](C)[C@@H](O[C@@H]2O[C@H](C)C[C@H](N(C)C)[C@H]2O)[C@](C)(OC(=O)NC/C=C/c2ccc(-n3cncn3)c(F)c2)C[C@@H](C)C(=O)[C@H](C)[C@H]2NC(=O)O[C@@]21C [Compound 53] | 16 µg/mL (≈ 19 µM) | 0.12 µg/mL (≈ 0.142 µM) | 0.03 µg/mL (≈ 0.0356 µM) | 4 µg/mL (≈ 4.75 µM) | 0.25 µg/mL (≈ 0.297 µM) | – | – | – | – | – |
| CC[C@H]1OC(=O)[C@H](C)C(=O)[C@H](C)[C@@H](O[C@@H]2O[C@H](C)C[C@H](N(C)C)[C@H]2O)[C@](C)(OC(=O)NCC=C(c2ccccc2)c2ccccc2)C[C@@H](C)C(=O)[C@H](C)[C@H]2NC(=O)O[C@@]21C [Compound 54] | >16 µg/mL | 0.5 µg/mL (≈ 0.6 µM) | 0.12 µg/mL (≈ 0.144 µM) | 2 µg/mL (≈ 2.4 µM) | 1 µg/mL (≈ 1.2 µM) | – | – | – | – | – |
| CC[C@H]1OC(=O)[C@H](C)C(=O)[C@H](C)[C@@H](O[C@@H]2O[C@H](C)C[C@H](N(C)C)[C@H]2O)[C@](C)(OC(=O)NCc2ccc(-n3cncn3)c(F)c2)C[C@@H](C)C(=O)[C@H](C)[C@H]2NC(=O)O[C@@]21C [Compound 55] | 16 µg/mL (≈ 19.6 µM) | 0.12 µg/mL (≈ 0.147 µM) | 0.03 µg/mL (≈ 0.0367 µM) | 4 µg/mL (≈ 4.9 µM) | 0.5 µg/mL (≈ 0.612 µM) | – | – | – | – | – |
| CC[C@H]1OC(=O)[C@H](C)C(=O)[C@H](C)[C@@H](O[C@@H]2O[C@H](C)C[C@H](N(C)C)[C@H]2O)[C@](C)(OC(=O)NCc2ccc(-c3ccccn3)s2)C[C@@H](C)C(=O)[C@H](C)[C@H]2NC(=O)O[C@@]21C [Compound 56] | 8 µg/mL (≈ 9.82 µM) | 0.06 µg/mL (≈ 0.0736 µM) | ≦0.015 μg/mL | 2 µg/mL (≈ 2.45 µM) | 0.25 µg/mL (≈ 0.307 µM) | – | – | – | – | – |
| CC[C@H]1OC(=O)[C@H](C)C(=O)[C@H](C)[C@@H](O[C@@H]2O[C@H](C)C[C@H](N(C)C)[C@H]2O)[C@](C)(OC(=O)NC/C=C/c2ccc(-c3ccccn3)s2)C[C@@H](C)C(=O)[C@H](C)[C@H]2NC(=O)O[C@@]21C [Compound 57] | 16 µg/mL (≈ 19 µM) | 0.12 µg/mL (≈ 0.143 µM) | 0.03 µg/mL (≈ 0.0357 µM) | 2 µg/mL (≈ 2.38 µM) | 0.25 µg/mL (≈ 0.297 µM) | – | – | – | – | – |
| CC[C@H]1OC(=O)[C@H](C)C(=O)[C@H](C)[C@@H](O[C@@H]2O[C@H](C)C[C@H](N(C)C)[C@H]2O)[C@](C)(OC(=O)NC/C=C/c2ccc(-n3cccn3)c(F)c2)C[C@@H](C)C(=O)[C@H](C)[C@H]2NC(=O)O[C@@]21C [Compound 58] | >16 µg/mL | 0.12 µg/mL (≈ 0.143 µM) | 0.06 µg/mL (≈ 0.0713 µM) | 4 µg/mL (≈ 4.75 µM) | 0.25 µg/mL (≈ 0.297 µM) | – | – | – | – | – |
| CC[C@H]1OC(=O)[C@H](C)C(=O)[C@H](C)[C@@H](O[C@@H]2O[C@H](C)C[C@H](N(C)C)[C@H]2O)[C@](C)(OC(=O)NCc2ccc(-n3cccn3)c(F)c2)C[C@@H](C)C(=O)[C@H](C)[C@H]2NC(=O)O[C@@]21C [Compound 59] | >16 µg/mL | ≦0.25 μg/mL | 0.03 µg/mL (≈ 0.0368 µM) | 4 µg/mL (≈ 4.9 µM) | 0.5 µg/mL (≈ 0.613 µM) | – | – | – | – | – |
